This is an account of results in US10986838B2, “Herbicides” (SYNGENTA PARTICIPATIONS AG, priority 2016, dated 2021).

SMILES strings stand for the structures.

Holding throughout (format): in vivo
In test [1] the test system is Echinochloa crus-galli (ECHCG). The test is described as follows: Post-emergence herbicidal activity (B2). The conditions noted are these: Test B2b, 1000 g/ha, evaluated after 13 days, 5=total damage to plant, 0=no damage to plant. As to the method: (§1) B2 Post-Emergence Herbicidal Activity Seeds of a variety of test species were sown in standard soil in pots: Triticum aestivium (TRZAW), Avena fatua (AVEFA), Alopecurus myosuroides (ALOMY), Echinochloa crus-galli (ECHCG), Lolium perenne (LOLPE), Zea Mays (ZEAMX), Abutilon theophrasti (ABUTH), Amaranthus retroflexus (AMARE) and Setaria faberi (SETFA). After 8 days cultivation (post-emergence) under controlled conditions in a glasshouse (at 24/16° C., day/night; 14 hours light; 65% humidity), the plants were sprayed with an aqueous spray solution derived from the formulation of the technical active ingredient in acetone/water (50:50) solution containing 0.5% Tween 20 (polyoxyethelyene sorbitan monolaurate, CAS RN 9005-64-5). The test plants were then grown in a glasshouse under controlled conditions (at 24/16° C., day/night; 14 hours light; 65% humidity) and watered twice daily. After 13 days, the test was evaluated (5=total damage to plant; 0=no damage to plant). Tables B2a and B2b Control of Weed Species by Compound of Formula (I) after Post-Emergence Application

Test [2] has as its system Setaria faberi (SETFA). The test is described as follows: Post-emergence herbicidal activity (B2). To be noted: Test B2b, 1000 g/ha, evaluated after 13 days, 5=total damage to plant, 0=no damage to plant. As to the method:
as §1

The test system of test [3] is Lolium perenne (LOLPE). The test is described as follows: Post-emergence herbicidal activity (B2). The conditions noted are these: Test B2b, 1000 g/ha, evaluated after 13 days, 5=total damage to plant, 0=no damage to plant. On the procedure: as §1
The subject of test [4] is Amaranthus retroflexus (AMARE). The test is described as follows: Post-emergence herbicidal activity (B2). To be noted: Test B2b, 1000 g/ha, evaluated after 13 days, 5=total damage to plant, 0=no damage to plant. On the procedure:
as §1

In test [5] the test system is Zea Mays (ZEAMX). The test is described as follows: Post-emergence herbicidal activity (B2). The conditions noted are these: Test B2b, 1000 g/ha, evaluated after 13 days, 5=total damage to plant, 0=no damage to plant. As to the method: as §1
Test [6] relates to Abutilon theophrasti (ABUTH). The test is described as follows: Post-emergence herbicidal activity (B2). The conditions noted are these: Test B2b, 1000 g/ha, evaluated after 13 days, 5=total damage to plant, 0=no damage to plant. On the procedure:
as §1

The subject of test [7] is Echinochloa crus-galli (ECHCG). The test is described as follows: Pre-emergence herbicidal activity (B1). To be noted: Test 1b, 1000 g/ha, evaluated after 13 days, 5=total damage to plant, 0=no damage to plant. On the procedure:
as §1, with “B1 Pre-Emergence” for “B2 Post-Emergence”, “After” for “After 8 days”, “for one day (pre-emergence)” for “(post-emergence)”, “B1a” for “B2a”, “B1b” for “B2b”, “Pre-Emergence” for “Post-Emergence”

The test system of test [8] is Setaria faberi (SETFA). The test is described as follows: Pre-emergence herbicidal activity (B1). To be noted: Test 1b, 1000 g/ha, evaluated after 13 days, 5=total damage to plant, 0=no damage to plant. On the procedure: as §1, with “B1 Pre-Emergence” for “B2 Post-Emergence”, “After” for “After 8 days”, “for one day (pre-emergence)” for “(post-emergence)”, “B1a” for “B2a”, “B1b” for “B2b”, “Pre-Emergence” for “Post-Emergence”

Test [9] deals with Lolium perenne (LOLPE). The test is described as follows: Pre-emergence herbicidal activity (B1). To be noted: Test 1b, 1000 g/ha, evaluated after 13 days, 5=total damage to plant, 0=no damage to plant. As to the method:
as §1, with “B1 Pre-Emergence” for “B2 Post-Emergence”, “After” for “After 8 days”, “for one day (pre-emergence)” for “(post-emergence)”, “B1a” for “B2a”, “B1b” for “B2b”, “Pre-Emergence” for “Post-Emergence”

Test [10] relates to Amaranthus retroflexus (AMARE). The test is described as follows: Pre-emergence herbicidal activity (B1). To be noted: Test 1b, 1000 g/ha, evaluated after 13 days, 5=total damage to plant, 0=no damage to plant. As to the method: as §1, with “B1 Pre-Emergence” for “B2 Post-Emergence”, “After” for “After 8 days”, “for one day (pre-emergence)” for “(post-emergence)”, “B1a” for “B2a”, “B1b” for “B2b”, “Pre-Emergence” for “Post-Emergence”

In test [11] the test system is Zea Mays (ZEAMX). The test is described as follows: Pre-emergence herbicidal activity (B1). The conditions noted are these: Test 1b, 1000 g/ha, evaluated after 13 days, 5=total damage to plant, 0=no damage to plant. On the procedure: as §1, with “B1 Pre-Emergence” for “B2 Post-Emergence”, “After” for “After 8 days”, “for one day (pre-emergence)” for “(post-emergence)”, “B1a” for “B2a”, “B1b” for “B2b”, “Pre-Emergence” for “Post-Emergence”

In test [12] the test system is Abutilon theophrasti (ABUTH). The test is described as follows: Pre-emergence herbicidal activity (B1). The conditions noted are these: Test 1b, 1000 g/ha, evaluated after 13 days, 5=total damage to plant, 0=no damage to plant. On the procedure: as §1, with “B1 Pre-Emergence” for “B2 Post-Emergence”, “After” for “After 8 days”, “for one day (pre-emergence)” for “(post-emergence)”, “B1a” for “B2a”, “B1b” for “B2b”, “Pre-Emergence” for “Post-Emergence”

Regarding `CNc1ccc(-c2cccnc2)nc1C(F)(F)F` [Compound A11], the ECHCG damage score was 4 in test [1] and 2 in [7]. The SETFA damage score in the test on Setaria faberi (SETFA) [2] and in the test with Setaria faberi (SETFA) [8] was 5 each time. Besides, the LOLPE damage score in the test with Lolium perenne (LOLPE) [3] is on record as 4; in the test on Lolium perenne (LOLPE) [9] it was 1. Also, the AMARE damage score in test [4] and in test [10] was 1 each time. In addition, the ZEAMX damage score in the test on Zea Mays (ZEAMX) [5] is 2; with Zea Mays (ZEAMX) [11], 1. For the same compound, the ABUTH damage score in test [6] and in test [12] was 1 each time.

As to `CNc1ccc(-c2cncc(F)c2)nc1C(F)(F)F` [Compound A5], the ECHCG damage score was found to be 4 in test [1] and 2 in test [7]. The SETFA damage score in the test on Setaria faberi (SETFA) [2] and in the test with Setaria faberi (SETFA) [8] was 5 in each case. Further, the LOLPE damage score is given as 4 with Lolium perenne (LOLPE) [3] and 1 with Lolium perenne (LOLPE) [9]. Moreover, the results for the AMARE damage score in test [4] and in test [10] were 1 and 2, respectively. Further, the ZEAMX damage score came out at 5 with Zea Mays (ZEAMX) [5] and 4 in the test with Zea Mays (ZEAMX) [11]. The ABUTH damage score in [6] and in test [12] was 1 in each case.

`Cc1ccc(CNc2ccc(-c3cncc(F)c3)nc2C(F)(F)F)cc1` [Compound A20]: the values for the ECHCG damage score in test [1] and in test [7] were 3 and 2, respectively. The SETFA damage score in the test on Setaria faberi (SETFA) [2] and in the test on Setaria faberi (SETFA) [8] was 5 throughout. For the same compound, the LOLPE damage score with Lolium perenne (LOLPE) [3] was found to be 2; in the test with Lolium perenne (LOLPE) [9] it was 0. Moreover, the AMARE damage score in [4] and in [10] was 0 throughout. Also, the ZEAMX damage score is listed as 5 with Zea Mays (ZEAMX) [5] and 3 in the test with Zea Mays (ZEAMX) [11]. For the same compound, the ABUTH damage score in test [6] and in [12] was 0 in each case.

As for `COc1cncc(-c2ccc(N)c(C)n2)c1` [Compound A13], the figures for the ECHCG damage score in test [1] and in test [7] were 1 and 0, respectively. The SETFA damage score is 1 with Setaria faberi (SETFA) [2] and 0 in the test on Setaria faberi (SETFA) [8]. In addition, the LOLPE damage score in the test on Lolium perenne (LOLPE) [3] and with Lolium perenne (LOLPE) [9] was 0 throughout. The figures for the AMARE damage score in test [4] and in test [10] were 1 and 0, respectively. Further, the ZEAMX damage score stood at 2 in the test on Zea Mays (ZEAMX) [5] and 0 in the test on Zea Mays (ZEAMX) [11]. For the same compound, the ABUTH damage score in test [6] and in test [12] was 0 in each case.

`CNc1ccc(-c2cncc(C)c2)nc1C(F)(F)F` [Compound A6]: the ECHCG damage score came out at 1 in test [1] and 0 in [7]. Moreover, the SETFA damage score was determined as 3 in the test on Setaria faberi (SETFA) [2] and 1 in the test with Setaria faberi (SETFA) [8]. The results for the LOLPE damage score in the test on Lolium perenne (LOLPE) [3] and in the test with Lolium perenne (LOLPE) [9] were 1 and 0, respectively. Further, the results for the AMARE damage score in test [4] and in [10] were 0 and 1, respectively. For the same compound, the ZEAMX damage score came to 1 in the test with Zea Mays (ZEAMX) [5] and 0 with Zea Mays (ZEAMX) [11]. The ABUTH damage score came out at 0 in test [6] and 1 in [12].

On to `CNc1ccc(-c2cncc(OC)c2)nc1C(F)(F)F` [Compound A10], for which the ECHCG damage score stood at 1 in test [1] and 0 in [7]. The SETFA damage score was 3 with Setaria faberi (SETFA) [2] and 2 in the test with Setaria faberi (SETFA) [8]. Also, the LOLPE damage score in the test with Lolium perenne (LOLPE) [3] is on record as 1; in the test with Lolium perenne (LOLPE) [9], 0. Moreover, the AMARE damage score in test [4] and in test [10] was 1 in each case. Also, the ZEAMX damage score amounted to 2 with Zea Mays (ZEAMX) [5] and 1 in the test with Zea Mays (ZEAMX) [11]. In addition, the ABUTH damage score in test [6] is on record as 0; in test [12], 1.
